PubChem BioAssay AID1963421 (Molecular Pharmacology Branch, DTP, NCI, 2024)
pIC50: −log10 of the molar value. Where “and” joins values, the source holds several entries; their conditions need not be identical. Equal entries are not always repeated.

Test system: 519858-162-T-J1-PDC complex spheroid growth, % test/control
Experiment: Anticancer human tumor 519858-162-T-J1-PDC patient-derived colon adenocarcinoma cell line growth inhibition [Asc]
Conditions: for viability, T/C: stronger effect = lower value; active = viability on the fitted dose curve at most 10% of control; inactive = the rest
Procedure, shortened: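 Spheroid model: tumor line + HUVEC + hMSC. Single agents and combinations; top conc. at/near clinical Cmax (10 microM if undetermined), half-log dilutions. DMSO stocks at 800-fold test concentration.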
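Also: seven day drug exposure begun three days after spheroid seeding.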
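For viability, T/C in this document: 100% = DMSO vehicle wells and lower values mean less viable spheroid.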

CNC(C)C(=O)NC1CN(S(=O)(=O)c2cccc(S(=O)(=O)N3CCC4CCC(C(=O)NC(c5ccccc5)c5ccccc5)N4C(=O)C(NC(=O)C(C)NC)C3)c2)CCC2CCC(C(=O)NC(c3ccccc3)c3ccccc3)N2C1=O (stereo not given)
< 6.00: pIC50 (compound alone, run of 11/15/2022) | pIC50 (curve of compound)

COc1c(OCCCN2CCOCC2)ccc2c3n(c(=NC(=O)c4cnc(N)nc4)nc12)CCN3 + Cc1c(S(C)(=O)=O)c(-c2cc(F)cc(N3CCN(c4ccc(NS(=O)(=O)c5ccc(NC(CCN6CCC(C(=O)OCCCP(=O)(O)O)CC6)CSc6ccccc6)c(S(=O)(=O)C(F)(F)F)c5)cc4)CC3)c2)c(-c2ccc(Cl)cc2)n1C(C)C
inactive: viability, T/C (second compound 0.0316 µM, first compound 0.00316 µM) 41.6% | viability, T/C (second compound 0.0316 µM, first compound 0.01 µM) 97.5% | viability, T/C (second compound 0.0316 µM, first compound 0.0316 µM) 74.9% | viability, T/C (second compound 0.0316 µM, first compound 0.1 µM) 95.5% | viability, T/C (second compound 0.0316 µM, first compound 0.316 µM) 54.4% | viability, T/C (second compound 0.0316 µM, first compound 1 µM) 52.7% | viability, T/C (second compound 0.1 µM, first compound 0.00316 µM) 68.5% | viability, T/C (second compound 0.1 µM, first compound 0.01 µM) 94.5% | viability, T/C (second compound 0.1 µM, first compound 0.0316 µM) 64.7% | viability, T/C (second compound 0.1 µM, first compound 0.1 µM) 100% | viability, T/C (second compound 0.1 µM, first compound 0.316 µM) 53.2% | viability, T/C (second compound 0.1 µM, first compound 1 µM) 47.1% | viability, T/C (second compound 0.316 µM, first compound 0.00316 µM) 65.2% | viability, T/C (second compound 0.316 µM, first compound 0.01 µM) 103% | viability, T/C (second compound 0.316 µM, first compound 0.0316 µM) 69.4% | viability, T/C (second compound 0.316 µM, first compound 0.1 µM) 72.7% | viability, T/C (second compound 0.316 µM, first compound 0.316 µM) 52.2% | viability, T/C (second compound 0.316 µM, first compound 1 µM) 53.5% | viability, T/C (second compound 1 µM, first compound 0.00316 µM) 108% | viability, T/C (second compound 1 µM, first compound 0.01 µM) 97.1% | viability, T/C (second compound 1 µM, first compound 0.0316 µM) 74.7% | viability, T/C (second compound 1 µM, first compound 0.1 µM) 59.8% | viability, T/C (second compound 1 µM, first compound 0.316 µM) 46.8% | viability, T/C (second compound 1 µM, first compound 1 µM) 42.2% | viability, T/C (second compound 3.16 µM, first compound 0.00316 µM) 84.1% | viability, T/C (second compound 3.16 µM, first compound 0.01 µM) 60.8% | viability, T/C (second compound 3.16 µM, first compound 0.0316 µM) 79.2% | viability, T/C (second compound 3.16 µM, first compound 0.1 µM) 70.3% | viability, T/C (second compound 3.16 µM, first compound 0.316 µM) 53.9% | viability, T/C (second compound 3.16 µM, first compound 1 µM) 55.6% | viability, T/C (second compound 10 µM, first compound 0.00316 µM) 78.3% | viability, T/C (second compound 10 µM, first compound 0.01 µM) 72.1% | viability, T/C (second compound 10 µM, first compound 0.0316 µM) 71.1% | viability, T/C (second compound 10 µM, first compound 0.1 µM) 45.6% | viability, T/C (second compound 10 µM, first compound 0.316 µM) 58.2% | viability, T/C (second compound 10 µM, first compound 1 µM) 46.2%
6.24: pIC50 (curve of first compound, second compound 0.1 µM)
6.62: pIC50 (curve of first compound, second compound 1 µM)
< 6.00: pIC50 (curve of first compound, second compound 0.0316 µM) | pIC50 (curve of first compound, second compound 0.316 µM) | pIC50 (curve of first compound, second compound 3.16 µM) | pIC50 (curve of first compound, second compound 10 µM)

C#Cc1c(F)ccc2cc(O)cc(-c3ncc4c(N5CC6CCC(C5)N6)nc(OCC56CCCN5CC(F)C6)nc4c3F)c12 (stereo not given)
< 5.00: pIC50 (curve of compound)
inactive: viability, T/C (compound 0.0316 µM) 89.4% and 98.1% and 81.9% | viability, T/C (compound 0.1 µM) 126% and 101% and 93.3% | viability, T/C (compound 0.316 µM) 102% and 92.8% and 90.6% | viability, T/C (compound 1 µM) 88.3% and 89.3% and 83.3% | viability, T/C (compound 3.16 µM) 86.9% and 78.3% and 64.9% | viability, T/C (compound 10 µM) 68.7% and 66.2% and 72.1%

O=C(c1ccc(F)c(F)c1Nc1ccc(I)cc1F)N1CC(O)([C@@H]2CCCCN2)C1
inactive: viability, T/C (compound 0.00316 µM) 85.1% and 106% and 91% | viability, T/C (compound 0.01 µM) 92.7% and 96% and 89.8% | viability, T/C (compound 0.0316 µM) 61.4% and 68.8% and 91.4% | viability, T/C (compound 0.1 µM) 71.8% and 85.1% and 80.8% | viability, T/C (compound 0.316 µM) 38.6% and 49.1% and 46.9% | viability, T/C (compound 1 µM) 18.4% and 19.7% and 19.3%
6.69 and 6.49 and 6.55: pIC50 (curve of compound)

NC(=O)C(=Cn1cnc(-c2cc(C(F)(F)F)cc(C(F)(F)F)c2)n1)c1cncnc1 + CCN1C(C(=O)NC23CCC(C(=O)O)(CC2)CC3)C(c2cccc(Cl)c2F)C2(C(=O)Nc3cc(Cl)ccc32)C12CCCCC2
< 6.52: pIC50 (curve of first compound, second compound 0.00949 µM) | pIC50 (curve of first compound, second compound 0.03 µM) | pIC50 (curve of first compound, second compound 0.0949 µM) | pIC50 (curve of first compound, second compound 0.3 µM) | pIC50 (curve of first compound, second compound 0.949 µM) | pIC50 (curve of first compound, second compound 3 µM)
inactive: viability, T/C (second compound 0.00949 µM, first compound 0.000949 µM) 102% | viability, T/C (second compound 0.00949 µM, first compound 0.003 µM) 94.8% | viability, T/C (second compound 0.00949 µM, first compound 0.00949 µM) 56.9% | viability, T/C (second compound 0.00949 µM, first compound 0.03 µM) 69.6% | viability, T/C (second compound 0.00949 µM, first compound 0.0949 µM) 65.8% | viability, T/C (second compound 0.00949 µM, first compound 0.3 µM) 81.9% | viability, T/C (second compound 0.03 µM, first compound 0.000949 µM) 87.2% | viability, T/C (second compound 0.03 µM, first compound 0.003 µM) 81% | viability, T/C (second compound 0.03 µM, first compound 0.00949 µM) 94.5% | viability, T/C (second compound 0.03 µM, first compound 0.03 µM) 81.4% | viability, T/C (second compound 0.03 µM, first compound 0.0949 µM) 63.5% | viability, T/C (second compound 0.03 µM, first compound 0.3 µM) 53.8% | viability, T/C (second compound 0.0949 µM, first compound 0.000949 µM) 87.5% | viability, T/C (second compound 0.0949 µM, first compound 0.003 µM) 94.5% | viability, T/C (second compound 0.0949 µM, first compound 0.00949 µM) 94.3% | viability, T/C (second compound 0.0949 µM, first compound 0.03 µM) 63.8% | viability, T/C (second compound 0.0949 µM, first compound 0.0949 µM) 63.4% | viability, T/C (second compound 0.0949 µM, first compound 0.3 µM) 63% | viability, T/C (second compound 0.3 µM, first compound 0.000949 µM) 75.5% | viability, T/C (second compound 0.3 µM, first compound 0.003 µM) 73.2% | viability, T/C (second compound 0.3 µM, first compound 0.00949 µM) 70.8% | viability, T/C (second compound 0.3 µM, first compound 0.03 µM) 88.2% | viability, T/C (second compound 0.3 µM, first compound 0.0949 µM) 45.1% | viability, T/C (second compound 0.3 µM, first compound 0.3 µM) 85.9% | viability, T/C (second compound 0.949 µM, first compound 0.000949 µM) 69.5% | viability, T/C (second compound 0.949 µM, first compound 0.003 µM) 71.9% | viability, T/C (second compound 0.949 µM, first compound 0.00949 µM) 58.3% | viability, T/C (second compound 0.949 µM, first compound 0.03 µM) 78.7% | viability, T/C (second compound 0.949 µM, first compound 0.0949 µM) 85.4% | viability, T/C (second compound 0.949 µM, first compound 0.3 µM) 79.2% | viability, T/C (second compound 3 µM, first compound 0.000949 µM) 69% | viability, T/C (second compound 3 µM, first compound 0.003 µM) 81.2% | viability, T/C (second compound 3 µM, first compound 0.00949 µM) 59% | viability, T/C (second compound 3 µM, first compound 0.03 µM) 65.5% | viability, T/C (second compound 3 µM, first compound 0.0949 µM) 91.2% | viability, T/C (second compound 3 µM, first compound 0.3 µM) 82.1%
